Data reported in patent US20050112573A1, “Method of detecting toxic substance” (priority 2001, published 2005).

Tested on: yeast genes (level of expressed mRNA)
Assay: DNA chip analysis of expressed mRNA of yeast genes after 2 h culture with a toxic chemical substance
Type: cell-based, Saccharomyces cerevisiae S288C
Description: Yeast (Saccharomyces cerevtisiae S288C (α SUC2mal mel gap2 CUP1)) were cultured at 25° C. on YPD medium (yeast extract 1%, polypepton 2%, glucose 2%). One of toxic chemical substances was added to the cell at logarithmic growth phase, and the cell was further cultured for two hours. Cell was cultured without any chemical substance in the same condition, and was used as control. Concentrations of the chemical substances were defined to inhibit the growth of the yeast but not lead to death.
After the completion of cultivation, the culture was centrifuged to collect the cells. To the cells, sodium acetate buffer (50 mM sodium acetate, 10 mM EDTA, 1% SDS) was added, and the mixture was shaken at 65° C. for five minutes, followed by returning to room temperature, and obtaining the supernatant, which procedure was repeated two times. To the supernatant, ½ amount of a solution of phenol/chloroform was added, and the mixture was centrifuged to give a supernatant, which was added with an equal amount of chloroform, and the mixture was centrifuged to give a supernatant. To the supernatant, an equal amount of isopropanol containing 0.3 M sodium acetate was added, and the mixture was allowed to stand at room temperature for 30 minutes, after which the mixture was centrifuged to give a sediment of the whole RNAs. Seventy % ethanol was added to the sediment, and the mixture was again centrifuged to give a sediment, which was then dried and dissolved in water. mRNA was isolated from the whole RNAs as followings. In view of the fact that a poly A chain is attached to the 3′ terminus of mRNA, a polynucleotide having a poly T structure which was immobilized on the surface of latex beads was used to trap the mRNA, and then the mRNA was washed and eluted with spine column (Oligotex-dT30<Super>mRNA Purification Kit, Takara). Reverse transcription of the mRNA was conducted with a reverse transcriptase (Super Script II Reverse Transcriptase; catalogue No. 18064-014, GibcoBRL) using fluorescence-labeled nucleotides to give cDNAs that were introduced with Cy3-dUTP or Cy5-dUTP during the reverse transcription.
The labeled cDNAs were dissolved in TE buffer (10 mM Tris-HCl/1 mM EDTA, pH8.0), and the solution was dropped on the DNA chip containing the whole genes of yeast (DNA Chip Research Inc. Japan) so that the cDNAs were hybridized on the DNA chip at 65° C. for over 12 hours. The fluoresces intensity of the DNA chip was read with a scanner, and the ratio relative to the fluorescence intensity resulting from the absence of chemical substance was estimated as the following, which is shown in Tables 1 to 9: [formula]
In the Tables, “Intensity” indicated in the rightmost column is a value of the level of expressed mRNA of each gene in control cells as divided by the average level of the expressions of the whole genes.

COc1cc(CNC(=O)CCCCC=CC(C)C)ccc1O [(12), 8-methyl-N-vanillyl-6-nonenamide]
1.2: The level of expressed mRNA in the presence of chemical substance/absence: YAL014C (gene YAL014C) | level of expressed mRNA in the presence of chemical substance/in its absence (gene YAL038W) | The level of expressed mRNA in the presence of chemical substance/absence: YBR013C (gene YBR013C) | level of expressed mRNA in the presence of chemical substance/in its absence (gene YBR035C) | level of expressed mRNA in the presence of chemical substance/in its absence (gene YBR111C) | level of expressed mRNA in the presence of chemical substance/in its absence (gene YBR183W) | The level of expressed mRNA in the presence of chemical substance/absence: YBR287W (gene YBR287W) | level of expressed mRNA in the presence of chemical substance/in its absence (gene YBR299W) | level of expressed mRNA in the presence of chemical substance/in its absence (gene YDL022W)
0.6: level of expressed mRNA in the presence of chemical substance/in its absence (gene YAL044C) | level of expressed mRNA in the presence of chemical substance/in its absence (gene YBR014C) | The level of expressed mRNA in the presence of chemical substance/absence: YDR090C (gene YDR090C) | The level of expressed mRNA in the presence of chemical substance/absence: YDR128W (gene YDR128W)
0.9: The level of expressed mRNA in the presence of chemical substance/absence: YAL018C (gene YAL018C) | The level of expressed mRNA in the presence of chemical substance/absence: YAR047C (gene YAR047C) | The level of expressed mRNA in the presence of chemical substance/absence: YBL044W (gene YBL044W) | The level of expressed mRNA in the presence of chemical substance/absence: YBR124W (gene YBR124W) | level of expressed mRNA in the presence of chemical substance/in its absence (gene YBR222C) | The level of expressed mRNA in the presence of chemical substance/absence: YCL044C (gene YCL044C) | level of expressed mRNA in the presence of chemical substance/in its absence (gene YCR048W) | The level of expressed mRNA in the presence of chemical substance/absence: YDL089W (gene YDL089W) | The level of expressed mRNA in the presence of chemical substance/absence: YDL233W (gene YDL233W) | The level of expressed mRNA in the presence of chemical substance/absence: YDR071C (gene YDR071C)
0.8: The level of expressed mRNA in the presence of chemical substance/absence: YAR064W (gene YAR064W) | level of expressed mRNA in the presence of chemical substance/in its absence (gene YBR023C) | level of expressed mRNA in the presence of chemical substance/in its absence (gene YBR068C) | The level of expressed mRNA in the presence of chemical substance/absence: YCR007C (gene YCR007C)
1.1: level of expressed mRNA in the presence of chemical substance/in its absence (gene YAL012W) | The level of expressed mRNA in the presence of chemical substance/absence: YAL049C (gene YAL049C) | The level of expressed mRNA in the presence of chemical substance/absence: YBR063C (gene YBR063C) | The level of expressed mRNA in the presence of chemical substance/absence: YDL173W (gene YDL173W) | The level of expressed mRNA in the presence of chemical substance/absence: YDL193W (gene YDL193W)
2.0: level of expressed mRNA in the presence of chemical substance/in its absence (gene YAR071W)
1.3: level of expressed mRNA in the presence of chemical substance/in its absence (gene YBR029C) | level of expressed mRNA in the presence of chemical substance/in its absence (gene YCR098C)
0.5: The level of expressed mRNA in the presence of chemical substance/absence: YBR281C (gene YBR281C)
0.7: level of expressed mRNA in the presence of chemical substance/in its absence (gene YBL001C) | The level of expressed mRNA in the presence of chemical substance/absence: YBL100C (gene YBL100C) | The level of expressed mRNA in the presence of chemical substance/absence: YBR051W (gene YBR051W) | The level of expressed mRNA in the presence of chemical substance/absence: YBR066C (gene YBR066C) | The level of expressed mRNA in the presence of chemical substance/absence: YBR162C (gene YBR162C) | The level of expressed mRNA in the presence of chemical substance/absence: YBR255W (gene YBR255W) | level of expressed mRNA in the presence of chemical substance/in its absence (gene YCL064C) | level of expressed mRNA in the presence of chemical substance/in its absence (gene YCR037C) | level of expressed mRNA in the presence of chemical substance/in its absence (gene YDR019C) | The level of expressed mRNA in the presence of chemical substance/absence: YDR078C (gene YDR078C)
1.7: level of expressed mRNA in the presence of chemical substance/in its absence (gene YCL009C)
1.0: The level of expressed mRNA in the presence of chemical substance/absence: YAL017W (gene YAL017W) | level of expressed mRNA in the presence of chemical substance/in its absence (gene YAL054C) | The level of expressed mRNA in the presence of chemical substance/absence: YBR012C (gene YBR012C) | level of expressed mRNA in the presence of chemical substance/in its absence (gene YBR050C) | The level of expressed mRNA in the presence of chemical substance/absence: YBR129C (gene YBR129C) | level of expressed mRNA in the presence of chemical substance/in its absence (gene YBR145W) | The level of expressed mRNA in the presence of chemical substance/absence: YCL056C (gene YCL056C) | The level of expressed mRNA in the presence of chemical substance/absence: YDL046W (gene YDL046W) | level of expressed mRNA in the presence of chemical substance/in its absence (gene YDR009W) | The level of expressed mRNA in the presence of chemical substance/absence: YDR109C (gene YDR109C)
